The subject of experiment [1] is Hs 746T (human gastric carcinoma cell line). Description: 48 hr CTG viability assay, Hs 746T. The following applies: Hs746T, 48 hr CTG, read-out: Hs 746T IC50. Type of experiment: cell-based. In outline: (§1)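 Growth inhibition by compound over 48 h; IC50 (nM) derived from duplicate CellTiter-Glo luminescence readings across 0.0015–10 uM.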
Experiment [2] has as its system RPMI 8226 (B lymphocyte cell line, multiple myeloma). Kind of experiment: 48 hr CTG viability assay, RPMI 8226. Type of experiment: cell-based. The note with it: Homo sapiens, RPMI-8226; 48 hr CTG; read-out: RPMI-8226 IC50. An outline of the steps: as §1
Experiment [3] concerns MM1 S (B lymphoblast cell line). Kind of experiment: 48 hr CTG viability assay, MM1S. Type of experiment: cell-based. The note with it: Homo sapiens, 48 hr CTG, read-out: MM1S IC50. In outline:
as §1

Experiment [4] concerns A549 (human lung carcinoma cell line). Kind of experiment: Glo assay of A549 cells (Table 3; ProteasomeGlo plating scheme). Type of experiment: cell-based. The following applies: Homo sapiens; A549 cells; read-out: PGLo A549. In outline:
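IC50 values (nM) come from a cell-based chymotrypsin-like Proteasome-Glo luminescence assay. Compound exposure ran 105 min at 37° C.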

The target of experiment [5] is T1, β5 subunit of the human constitutive proteasome (CPS) (Homo sapiens, UniProt P28074).
T1 construct: purchased Boston Biochem E-360
Description: β5 inhibition assay, human constitutive proteasome (Suc-LLVY-AMC). Format: biochemical. The following applies: IC50 class, Suc-LLVY-AMC substrate. How it is done: The enzymatic activity of the β5 subunit of the human constitutive proteasome (CPS) is analyzed. In another assay, which differs from the assay of the human constitutive proteasome only in using the human immunoproteasome (IPS) the enzymatic activity of the β5 subunit of the human immunoproteasome (IPS) is analyzed. […] Inhibition is indicated as IC50 [nM] (“-”=not measured).

Experiment [6] deals with T2, β5 subunit of the human immunoproteasome (IPS) (Homo sapiens, UniProt P28062).
T2 construct: purchased Boston Biochem E-370
Kind of experiment: β5 inhibition assay, human immunoproteasome (Suc-LLVY-AMC). The note with it: IC50 class, Suc-LLVY-AMC substrate. Format: biochemical. An outline of the steps: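 β5 activity is read as liberated AMC fluorescence (355/460 nm) after 4 h dark reaction at RT with 22.6 μM Suc-LLVY-AMC, stopped by 1 μM bortezomib. Beforehand, 1 nM human IPS and compound sat 10 min at RT in HEPES pH 7.5 buffer containing NaCl, 0.02% SDS and DTT.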

pIC50: −log10 of the molar value. Some results are limits rather than exact numbers.

As to `Cc1ccc2cc1CNC(=O)[C@H](CCc1ccccc1)NC(=O)[C@@H](NC(=O)C1CC3CCC(C1)N3)CC(=O)N1CCCC(CCO2)C1` (stereo partly drawn) [Compound 723, N-((9S,12S)-5^4-methyl-8,11,14-trioxo-9-phenethyl-4-oxa-7,10-diaza-1(3,1)-piperidina-5(1,3)-benzenacyclotetradecaphane-12-yl)-8-azabicyclo[3.2]octane-3-carboxamide], the pIC50 in experiment [1] is 6.30 to 7.00; in experiment [2], 6.30 to 7.00; in experiment [3], 6.30 to 7.00; in experiment [4] it was greater than 7.00; in experiment [5], greater than 7.00; in experiment [6], greater than 7.00.
On to `Cc1ccc2cc1CNC(=O)[C@H](CCc1ccccc1)NC(=O)[C@@H](NC(=O)CCNCCC1CC3CCC1C3)CC(=O)N1CCCC(CCO2)C1` (stereo partly drawn) [Compound 698, 3-((2-(bicyclo[2.2.1]heptan-2-yl)ethyl)amino)-N-((9S,12S)-5^4-methyl-8,11,14-trioxo-9-phenethyl-4-oxa-7,10-diaza-1(3,1)-piperidina-5(1,3)-benzenacyclotetradecaphane-12-yl)propanamide], for which the pIC50 in experiment [1], in experiment [2], in experiment [3], in experiment [4], in experiment [5] and in experiment [6] was greater than 7.00 each time.
For `Cc1ccc2cc1CNC(=O)[C@H](CCc1ccccc1)NC(=O)[C@@H](NC(=O)N1CCc3cc(O)ccc31)CC(=O)N1CCCC(CCO2)C1` (stereo partly drawn) [Compound 705, 5-hydroxy-N-((9S,12S)-5^4-methyl-8,11,14-trioxo-9-phenethyl-4-oxa-7,10-diaza-1(3,1)-piperidina-5(1,3)-benzenacyclotetradecaphane-12-yl)indoline-1-carboxamide], the pIC50 in experiment [1], in experiment [2], in experiment [3], in experiment [4], in experiment [5] and in experiment [6] was greater than 7.00 throughout.
For the compound `Cc1ccc2cc1CNC(=O)[C@H](CCc1ccccc1)NC(=O)[C@@H](NC(=O)CCN1CC3(CCC3)C1)CC(=O)N1CCCC(CCO2)C1` (stereo partly drawn) [Compound 659, N-((9S,12S)-5^4-methyl-8,11,14-trioxo-9-phenethyl-4-oxa-7,10-diaza-1(3,1)-piperidina-5(1,3)-benzenacyclotetradecaphane-12-yl)-3-(2-azaspiro[3.3]heptan-2-yl)propanamide], the pIC50 in experiment [1], in experiment [2], in experiment [3], in experiment [4], in experiment [5] and in experiment [6] was greater than 7.00 in each case.
For `Cc1ccc2cc1CNC(=O)[C@H](CCc1ccccc1)NC(=O)[C@@H](NCC(C)(C)CO)CC(=O)N1CCCC(CCO2)C1` (stereo partly drawn) [Compound 690, (9S,12S)-12-((3-hydroxy-2,2-dimethylpropyl)amino)-5^4-methyl-9-phenethyl-4-oxa-7,10-diaza-1(3,1)-piperidina-5(1,3)-benzenacyclotetradecaphane-8,11,14-trione], the pIC50 in experiment [1], in experiment [2], in experiment [3], in experiment [4], in experiment [5] and in experiment [6] was greater than 7.00 throughout.
As to `Cc1ccc2cc1CNC(=O)[C@H](CCc1ccc(N)cc1)NC(=O)[C@@H](NC(=O)Cc1cn3ccsc3n1)CC(=O)N1CCCC(CCO2)C1` (stereo partly drawn) [Compound 708, N-((9S,12S)-9-(4-aminophenethyl)-5^4-methyl-8,11,14-trioxo-4-oxa-7,10-diaza-1(3,1)-piperidina-5(1,3)-benzenacyclotetradecaphane-12-yl)-2-(imidazo[2,1-b]thiazol-6-yl)acetamide], the pIC50 in experiment [1], in experiment [2], in experiment [3], in experiment [4], in experiment [5] and in experiment [6] was greater than 7.00 each time.
On to `Cc1ccc2cc1CNC(=O)[C@H](CCc1ccccc1)NC(=O)[C@@H](NC(=O)CCN1CCC3(CCOC3)C1)CC(=O)N1CCCC(CCO2)C1` (stereo partly drawn) [Compound 640, N-((9S,12S)-5^4-methyl-8,11,14-trioxo-9-phenethyl-4-oxa-7,10-diaza-1(3,1)-piperidina-5(1,3)-benzenacyclotetradecaphane-12-yl)-3-(2-oxa-7-azaspiro[4.4]nonan-7-yl)propanamide], for which the pIC50 in experiment [1], in experiment [2], in experiment [3], in experiment [4], in experiment [5] and in experiment [6] was greater than 7.00 each time.
For the compound `COc1ccc(CCOCCC(=O)N[C@H]2CC(=O)N3CCCC(CCOc4ccc(C)c(c4)CNC(=O)[C@H](CCc4ccccc4)NC2=O)C3)cc1` (stereo partly drawn) [Compound 610, 3-(4-methoxyphenethoxy)-N-((9S,12S)-5^4-methyl-8,11,14-trioxo-9-phenethyl-4-oxa-7,10-diaza-1(3,1)-piperidina-5(1,3)-benzenacyclotetradecaphane-12-yl)propanamide], the pIC50 in experiment [1], in experiment [2], in experiment [3], in experiment [4], in experiment [5] and in experiment [6] was greater than 7.00 in each case.
Turning to `Cc1ccc2cc1CNC(=O)[C@H](CCc1ccccc1)NC(=O)[C@@H](NC(=O)CCNC1CC1)CC(=O)N1CCCC(CCO2)C1` (stereo partly drawn) [Compound 649, 3-(cyclopropylamino)-N-((9S,12S)-5^4-methyl-8,11,14-trioxo-9-phenethyl-4-oxa-7,10-diaza-1(3,1)-piperidina-5(1,3)-benzenacyclotetradecaphane-12-yl)propanamide], the pIC50 in experiment [1], in experiment [2], in experiment [3], in experiment [4], in experiment [5] and in experiment [6] was greater than 7.00 throughout.
In the case of `Cc1ccc2cc1CNC(=O)[C@H](CCc1ccccc1)NC(=O)[C@@H](NC1CC3CCC1C3)CC(=O)N1CCCC(CCO2)C1` (stereo partly drawn) [Compound 712, (9S,12S)-12-(bicyclo[2.2.1]heptan-2-ylamino)-5^4-methyl-9-phenethyl-4-oxa-7,10-diaza-1(3,1)-piperidina-5(1,3)-benzenacyclotetradecaphane-8,11,14-trione], the pIC50 was 6.30 to 7.00 in experiment [1]; greater than 7.00 in experiment [2]; greater than 7.00 in experiment [3]; greater than 7.00 in experiment [4]; greater than 7.00 in experiment [5]; greater than 7.00 in experiment [6].
Regarding `COc1ccccc1CCCOCCC(=O)N[C@H]1CC(=O)N2CCCC(CCOc3ccc(C)c(c3)CNC(=O)[C@H](CCc3ccccc3)NC1=O)C2` (stereo partly drawn) [Compound 637, 3-(3-(2-methoxyphenyl)propoxy)-N-((9S,12S)-5^4-methyl-8,11,14-trioxo-9-phenethyl-4-oxa-7,10-diaza-1(3,1)-piperidina-5(1,3)-benzenacyclotetradecaphane-12-yl)propanamide], the pIC50 in experiment [1], in experiment [2], in experiment [3], in experiment [4], in experiment [5] and in experiment [6] was greater than 7.00 each time.
Consider `Cc1ccc2cc1CNC(=O)[C@H](CCc1ccccc1)NC(=O)[C@@H](NC(=O)CCN1CCC3(CCC3)C1)CC(=O)N1CCCC(CCO2)C1` (stereo partly drawn) [Compound 639, N-((9S,12S)-5^4-methyl-8,11,14-trioxo-9-phenethyl-4-oxa-7,10-diaza-1(3,1)-piperidina-5(1,3)-benzenacyclotetradecaphane-12-yl)-3-(6-azaspiro[3.4]octan-6-yl)propanamide], for which the pIC50 in experiment [1], in experiment [2], in experiment [3], in experiment [4], in experiment [5] and in experiment [6] was greater than 7.00 each time.
Take `Cc1ccc2cc1CNC(=O)[C@H](CCc1ccccc1)NC(=O)[C@@H](NS(=O)(=O)Cc1ccccc1F)CC(=O)N1CCCC(CCO2)C1` (stereo partly drawn) [Compound 636, 1-(2-fluorophenyl)-N-((9S,12S)-5^4-methyl-8,11,14-trioxo-9-phenethyl-4-oxa-7,10-diaza-1(3,1)-piperidina-5(1,3)-benzenacyclotetradecaphane-12-yl)methanesulfonamide]: the pIC50 in experiment [1], in experiment [2], in experiment [3], in experiment [4], in experiment [5] and in experiment [6] was greater than 7.00 throughout.

Source of the values: patent US20240415819A1, “MACROCYCLIC COMPOUNDS AS PROTEASOME SUBUNIT BETA TYPE-5 INHIBITORS” (Lead Discovery Center GmbH, priority 2021, published 2024).
